Results published in the supplement of paper PMC10307832.

Legend:
Assay in all cases: relative viability (nuclei count vs DMSO), 5 days (fraction); higher = more cells survive
NCI-H1915 = system: NCI-H1915
In short: (§1)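 Lung cancer cell lines in 1536-well plates were dosed by pin tool the day after seeding, either with one drug alone or with a fixed anchor-drug dose plus five library-drug doses (not always all listed) in √10 steps. After 5 days, cells were fixed and their nuclei stained in one step (final 0.05% Triton X-100, 1% formaldehyde, 1 ug/ml Hoechst), then counted on 4× images. Relative viability is the nuclei count in treated wells divided by that in vehicle wells. Values are medians of duplicate plates.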

NCI-H2347 = system: NCI-H2347
In short: as §1

UMC-11 = system: UMC-11
In short: as §1

HCC-44 = system: HCC-44
In short: as §1

LC-2-ad = system: LC-2-ad
In short: as §1

COR-L23 = system: COR-L23
In short: as §1

NCI-H1651 = system: NCI-H1651
In short: as §1

NCI-H2023 = system: NCI-H2023
In short: as §1

LU99A = system: LU99A
In short: as §1

PC-14 = system: PC-14
In short: as §1

HOP-62 = system: HOP-62
In short: as §1

SW 1573 = system: SW 1573
In short: as §1

NCI-H838 = system: NCI-H838
In short: as §1

NCI-H1993 = system: NCI-H1993
In short: as §1

EPLC-272H = system: EPLC-272H
In short: as §1

NCI-H2126 = system: NCI-H2126
In short: as §1

ABC-1 = system: ABC-1
In short: as §1

NCI-H1355 = system: NCI-H1355
In short: as §1

NCI-H2085 = system: NCI-H2085
In short: as §1

HARA = system: HARA
In short: as §1

HCC-15 = system: HCC-15
In short: as §1

NCI-H650 = system: NCI-H650
In short: as §1

Cc1sc2c(c1C)C(c1ccc(Cl)cc1)=N[C@@H](CC(=O)OC(C)(C)C)c1nnc(C)n1-2 [JQ1] + Cc1nc(NC(=O)N2CCC[C@H]2C(N)=O)sc1-c1ccnc(C(C)(C)C(F)(F)F)c1 [Alpelisib] (partner 2 µM)
relative viability (NCI-H1915; first compound 0.04 µM): 1.05
relative viability (NCI-H1915; first compound 0.1265 µM): 0.94
relative viability (NCI-H1915; first compound 0.4 µM): 0.982
relative viability (NCI-H1915; first compound 1.265 µM): 0.613
relative viability (NCI-H1915; first compound 4 µM): 0.33
relative viability (NCI-H2347; first compound 0.04 µM): 0.982
relative viability (NCI-H2347; first compound 0.1265 µM): 0.8
relative viability (NCI-H2347; first compound 0.4 µM): 0.848
relative viability (NCI-H2347; first compound 1.265 µM): 0.646
relative viability (NCI-H2347; first compound 4 µM): 0.477
relative viability (UMC-11; first compound 0.04 µM): 0.941
relative viability (UMC-11; first compound 0.1265 µM): 0.997
relative viability (UMC-11; first compound 0.4 µM): 0.26
relative viability (UMC-11; first compound 1.265 µM): 0.197
relative viability (UMC-11; first compound 4 µM): 0.158
relative viability (HCC-44; first compound 0.04 µM): 0.809
relative viability (HCC-44; first compound 0.1265 µM): 0.518
relative viability (HCC-44; first compound 0.4 µM): 0.37
relative viability (HCC-44; first compound 1.265 µM): 0.251
relative viability (HCC-44; first compound 4 µM): 0.238
relative viability (LC-2-ad; first compound 0.04 µM): 0.953
relative viability (LC-2-ad; first compound 0.1265 µM): 0.794
relative viability (LC-2-ad; first compound 0.4 µM): 0.54
relative viability (LC-2-ad; first compound 1.265 µM): 0.289
relative viability (LC-2-ad; first compound 4 µM): 0.217
relative viability (COR-L23; first compound 0.04 µM): 0.814
relative viability (COR-L23; first compound 0.1265 µM): 0.708
relative viability (COR-L23; first compound 0.4 µM): 0.754
relative viability (COR-L23; first compound 1.265 µM): 0.36
relative viability (COR-L23; first compound 4 µM): 0.21
relative viability (NCI-H1651; first compound 0.04 µM): 0.882
relative viability (NCI-H1651; first compound 0.1265 µM): 0.886
relative viability (NCI-H1651; first compound 0.4 µM): 0.589
relative viability (NCI-H1651; first compound 1.265 µM): 0.462
relative viability (NCI-H1651; first compound 4 µM): 0.411
relative viability (NCI-H2023; first compound 0.04 µM): 0.544
relative viability (NCI-H2023; first compound 0.1265 µM): 0.651
relative viability (NCI-H2023; first compound 0.4 µM): 0.531
relative viability (NCI-H2023; first compound 1.265 µM): 0.213
relative viability (NCI-H2023; first compound 4 µM): 0.217
relative viability (LU99A; first compound 0.04 µM): 0.537
relative viability (LU99A; first compound 0.1265 µM): 0.544
relative viability (LU99A; first compound 0.4 µM): 0.424
relative viability (LU99A; first compound 1.265 µM): 0.307
relative viability (LU99A; first compound 4 µM): 0.235
relative viability (PC-14; first compound 0.04 µM): 0.974
relative viability (PC-14; first compound 0.1265 µM): 0.921
relative viability (PC-14; first compound 0.4 µM): 0.885
relative viability (PC-14; first compound 1.265 µM): 0.59
relative viability (PC-14; first compound 4 µM): 0.351
relative viability (HOP-62; first compound 0.04 µM): 1.2
relative viability (HOP-62; first compound 0.1265 µM): 0.728
relative viability (HOP-62; first compound 0.4 µM): 0.332
relative viability (HOP-62; first compound 1.265 µM): 0.182
relative viability (HOP-62; first compound 4 µM): 0.09
relative viability (SW 1573; first compound 0.04 µM): 0.808
relative viability (SW 1573; first compound 0.1265 µM): 0.702
relative viability (SW 1573; first compound 0.4 µM): 0.714
relative viability (SW 1573; first compound 1.265 µM): 0.439
relative viability (SW 1573; first compound 4 µM): 0.383
relative viability (NCI-H838; first compound 0.04 µM): 1.03
relative viability (NCI-H838; first compound 0.1265 µM): 0.698
relative viability (NCI-H838; first compound 0.4 µM): 0.882
relative viability (NCI-H838; first compound 1.265 µM): 0.291
relative viability (NCI-H838; first compound 4 µM): 0.263
relative viability (NCI-H1993; first compound 0.04 µM): 0.705
relative viability (NCI-H1993; first compound 0.1265 µM): 0.653
relative viability (NCI-H1993; first compound 0.4 µM): 0.667
relative viability (NCI-H1993; first compound 1.265 µM): 0.665
relative viability (NCI-H1993; first compound 4 µM): 0.665
relative viability (EPLC-272H; first compound 0.04 µM): 0.897
relative viability (EPLC-272H; first compound 0.1265 µM): 0.904
relative viability (EPLC-272H; first compound 0.4 µM): 0.889
relative viability (EPLC-272H; first compound 1.265 µM): 0.423
relative viability (EPLC-272H; first compound 4 µM): 0.376
relative viability (NCI-H2126; first compound 0.04 µM): 0.797
relative viability (NCI-H2126; first compound 0.1265 µM): 0.682
relative viability (NCI-H2126; first compound 0.4 µM): 0.681
relative viability (NCI-H2126; first compound 1.265 µM): 0.516
relative viability (NCI-H2126; first compound 4 µM): 0.47
relative viability (ABC-1; first compound 0.04 µM): 1.07
relative viability (ABC-1; first compound 0.1265 µM): 1.04
relative viability (ABC-1; first compound 0.4 µM): 0.829
relative viability (ABC-1; first compound 1.265 µM): 0.424
relative viability (ABC-1; first compound 4 µM): 0.465
relative viability (NCI-H1355; first compound 0.04 µM): 0.856
relative viability (NCI-H1355; first compound 0.1265 µM): 0.84
relative viability (NCI-H1355; first compound 0.4 µM): 0.71
relative viability (NCI-H1355; first compound 1.265 µM): 0.508
relative viability (NCI-H1355; first compound 4 µM): 0.438
relative viability (NCI-H2085; first compound 0.04 µM): 0.975
relative viability (NCI-H2085; first compound 0.1265 µM): 0.844
relative viability (NCI-H2085; first compound 0.4 µM): 0.824
relative viability (NCI-H2085; first compound 1.265 µM): 0.595
relative viability (NCI-H2085; first compound 4 µM): 0.549
relative viability (HARA; first compound 0.04 µM): 0.915
relative viability (HARA; first compound 0.1265 µM): 0.598
relative viability (HARA; first compound 0.4 µM): 0.283
relative viability (HARA; first compound 1.265 µM): 0.266
relative viability (HARA; first compound 4 µM): 0.156
relative viability (HCC-15; first compound 0.04 µM): 0.806
relative viability (HCC-15; first compound 0.4 µM): 0.768
relative viability (HCC-15; first compound 1.265 µM): 0.417
relative viability (HCC-15; first compound 4 µM): 0.449
relative viability (NCI-H650; first compound 0.04 µM): 1.11
relative viability (NCI-H650; first compound 0.1265 µM): 0.715
relative viability (NCI-H650; first compound 0.4 µM): 0.707
relative viability (NCI-H650; first compound 1.265 µM): 0.377
relative viability (NCI-H650; first compound 4 µM): 0.257
